Test results published in patent publication US4727082A, “Dihydropyridine compounds and pharmaceutical compositions containing them” (Yamanouchi Pharmaceutical Co., Ltd., priority 1984, dated 1988).
Where two headings read alike, the source gives them in different places.

Legend:
[1] = Hemodynamic effects in anesthetized open-chest dogs; format: in vivo, Mongrel dogs; settings: Canis lupus familiaris; for change in vivo at 0.3 mg/kg: 0.3 mg/kg iv; for change in vivo at 1 mg/kg: 1.0 mg/kg iv; for change in vivo at 0.1 mg/kg: 0.1 mg/kg iv
Description: Mongrel dogs of either sex were anesthetized with pentobarbital sodium (30 mg/kg iv). The animals were artificially ventilated with room air. The chest was opened at the left 4th intercostal space. Mean arterial blood pressure (MBP), heart rate (HR), left ventricular pressure (LVP), max. dLVP/dt, mean pulmonary arterial blood pressure (MPAP), cardiac output (CO) and coronary blood flow (Cor. BF) were measured. The test compounds were injected into the femoral vein. Hemodynamic effects of these compounds were compared with that of well known Ca^2+ -antagonists. Table 1 (column 1) indicates the percent changes of MBP and Cor. BF from control values induced by intravenous injection of test compounds.

coronary artery = experiment: Coronary vasodilating effects, intracoronary injection in anesthetized dogs; format: in vivo, Mongrel dogs; settings: for Duration of action of coronary vasodilating effect: intracoronary injection; for ED100 pap (dose for 100% increase of Cor. BF): intracoronary, maximum response to papaverine 300 μg ia = 100%
Description: Mongrel dogs of either sex were anesthetized and ventilated as previously described. A thoracotomy was performed at the 4th intercostal space. Following an intravenous injection of […] (1000 units/kg), blood from the distal end of the cannulated carotid artery was pumped into circumflex branch of the left coronary artery using a servocontrolled peristaltic pump which maintained a constant perfusion pressure of 120 mmHg by means of a pump controller. An electromagnetic flow probe was inserted in the circuit to record blood flow through the cannulated coronary artery. The test compounds were administered directly into the rubber tubing connected close to the coronary artery cannula. Coronary vasodilating potency of the test compounds was by calculating the dose required to produce 100% increase of Cor. BF (ED100 pap), when the maximum responses to papaverine at a dose of 300 μg ia was expressed at 100% response.

Beta-adrenoceptor [2] = molecular target: T1, Beta-adrenoceptor (Rattus norvegicus, UniProt P18090); experiment: Beta-adrenoceptor blocking effects: blockade of positive chronotropic response to isoproterenol; format: in vivo, male Wistar rats; settings: read-out: Beta Blocking ED50
T1 construct: from tissue; host or cells: heart in situ of anesthetized male Wistar rats (in vivo, i.v. dosing)
Description: (§1) The rats were pretreated with reserpine (8 mg/kg ip), 18 hr before experiments. […] The heart rate was measured with a cardiotachometer triggered by the QRS of the ECG (lead II) and recorded on a polygraph. After the control response to isoproterenol at a dose of 0.1 μg/kg iv was obtained, the test compound was injected iv in increasing doses at 20 min intervals.

Beta-adrenoceptor [3] = molecular target: T1, Beta-adrenoceptor; experiment: Intrinsic sympathomimetic activity (ISA), increase in heart rate; format: in vivo, male Wistar rats; settings: increase in HR, reserpinized rats, iv
Description: as §1
In this series of experiments, intrinsic sympathomimetic activity (ISA) was also evaluated. The results are shown in Table 1 (column 4), wherein "-" represents that an increase in HR was scarcely observed, "+" represents an increase in HR of 10 to 19 beats/min, "++" represents an increase in HR of 20 to 29 beats/min, and "+++" represents an increase in HR of above 30 beats/min.

[4] = read-out: Cor. BF, percent change from control
[5] = read-out: MBP, percent change from control
[6] = 50% blockade of chronotropic response to isoproterenol 0.1 μg/kg iv, reserpinized, vagotomized rats, cumulative dose

T1 sequence (P18090 whole entry): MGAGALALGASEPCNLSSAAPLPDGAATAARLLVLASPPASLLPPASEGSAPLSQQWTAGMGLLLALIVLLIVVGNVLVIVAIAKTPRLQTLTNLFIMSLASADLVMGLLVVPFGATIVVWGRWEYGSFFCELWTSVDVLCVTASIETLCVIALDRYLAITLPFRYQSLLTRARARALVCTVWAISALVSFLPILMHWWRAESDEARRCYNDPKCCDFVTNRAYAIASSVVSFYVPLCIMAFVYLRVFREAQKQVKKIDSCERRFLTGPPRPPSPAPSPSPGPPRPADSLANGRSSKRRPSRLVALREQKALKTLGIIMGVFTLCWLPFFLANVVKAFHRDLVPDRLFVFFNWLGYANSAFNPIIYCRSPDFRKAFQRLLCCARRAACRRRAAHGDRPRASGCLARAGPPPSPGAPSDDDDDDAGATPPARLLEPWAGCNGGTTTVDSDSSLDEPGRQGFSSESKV

## COc1ccc([C@@H]2Sc3ccccc3N(CCN(C)C)C(=O)[C@@H]2OC(C)=O)cc1 [Diltiazem, reference compound]
[1]; [4]
  change in vivo at 0.3 mg/kg: 90%
[1]; [5]
  change in vivo at 0.3 mg/kg: -30%
Coronary artery
  Duration of action of coronary vasodilating effect: 20 min
  ED100 pap (dose for 100% increase of Cor. BF): 51 μg ia

## COC(=O)C1=C(C)NC(C)=C(C(=O)OC)C1c1cc([N+](=O)[O-])ccc1OCCCCNCC(O)COc1ccc(NC(C)=O)cc1 (stereo not drawn) [Example 42, dimethyl 4-[2-[4-[3-(p-acetamidophenoxy)-2-hydroxypropylamino]butoxy]-5-nitrophenyl]-2,6-dimethyl-1,4-dihydropyridine-3,5-dicarboxylate]
[1]; [4]
  change in vivo at 1 mg/kg: 8%
[1]; [5]
  change in vivo at 1 mg/kg: -13%
Coronary artery
  Duration of action of coronary vasodilating effect: > 60 min
  ED100 pap (dose for 100% increase of Cor. BF): 515 μg ia
Beta-adrenoceptor [2]; [6]
  ED50: 0.5 mg/kg
Beta-adrenoceptor [3]
  ISA: -

## COC(=O)C1=C(C)NC(C)=C(C(=O)OC)C1c1cc(Cl)ccc1OCCCCNCC(O)COc1ccccc1 (stereo not drawn) [Example 24, dimethyl 4-[5-chloro-2-[4-(2-hydroxy-3-phenoxypropylamino)butoxy]phenyl]-2,6-dimethyl-1,4-dihydropyr idine-3,5-dicarboxylate]
[1]; [4]
  change in vivo at 1 mg/kg: 62%
[1]; [5]
  change in vivo at 1 mg/kg: -33%
Coronary artery
  Duration of action of coronary vasodilating effect: 60 min
  ED100 pap (dose for 100% increase of Cor. BF): 245 μg ia
Beta-adrenoceptor [2]; [6]
  ED50: 1.5 mg/kg
Beta-adrenoceptor [3]
  ISA: -

## COC(=O)C1=C(C)NC(C)=C(C(=O)OC)C1c1cc([N+](=O)[O-])ccc1OCCCCNCC(O)COc1ccccc1 (stereo not drawn) [Example 15, dimethyl 4-[2-[4-(2-hydroxy-3-phenoxypropylamino)butoxy]-5-nitrophenyl]-2,6-dimethyl-1,4-dihydropyridine-3,5-dicarboxylate]
[1]; [4]
  change in vivo at 1 mg/kg: 96%
[1]; [5]
  change in vivo at 1 mg/kg: -33%
Coronary artery
  Duration of action of coronary vasodilating effect: > 60 min
  ED100 pap (dose for 100% increase of Cor. BF): 228 μg ia
Beta-adrenoceptor [2]; [6]
  ED50: 0.7 mg/kg
Beta-adrenoceptor [3]
  ISA: -

## CCOC(=O)C1=C(C)NC(C)=C(C(=O)OCC)C1c1cc([N+](=O)[O-])ccc1OCCCCNCC(O)COc1ccccc1 (stereo not drawn) [Example 18, diethyl 4-[2-[4-(2-hydroxy-3-phenoxypropylamino)butoxy]-5-nitrophenyl]-2,6-dimethyl-1,4-dihydropyridine-3,5-dicarboxylate]
[1]; [4]
  change in vivo at 0.3 mg/kg: 20%
[1]; [5]
  change in vivo at 0.3 mg/kg: -13%
Coronary artery
  Duration of action of coronary vasodilating effect: 60 min
  ED100 pap (dose for 100% increase of Cor. BF): 285 μg ia
Beta-adrenoceptor [2]; [6]
  ED50: 3.11 mg/kg
Beta-adrenoceptor [3]
  ISA: -

## COC(=O)C1=C(C)NC(C)=C(C(=O)OC)C1c1cc(OC)ccc1OCCCCNCC(O)COc1ccccc1 (stereo not drawn) [Example 26, dimethyl 4-[2-[4-(2-hydroxy-3-phenoxypropylamino)butoxy]-5-methoxyphenyl]-2,6-dimethyl-1,4-dihydropyridine-3,5-dicarboxylate]
[1]; [4]
  change in vivo at 1 mg/kg: 43%
[1]; [5]
  change in vivo at 1 mg/kg: -38%
Coronary artery
  Duration of action of coronary vasodilating effect: 40 min
  ED100 pap (dose for 100% increase of Cor. BF): 600 μg ia
Beta-adrenoceptor [2]; [6]
  ED50: 0.53 mg/kg
Beta-adrenoceptor [3]
  ISA: -

## CCOC(=O)C1=C(C)NC(C)=C(C(=O)OC)C1c1cc([N+](=O)[O-])ccc1OCCCCNCC(O)COc1ccccc1 (stereo not drawn) [Example 10, ethyl methyl 4-[2-[4-(2-hydroxy-3-phenoxypropylamino)butoxy]-5-nitrophenyl]-2,6-dimethyl-1,4-dihydropyridine-3,5-dicarboxylate]
[1]; [4]
  change in vivo at 0.3 mg/kg: 26%
[1]; [5]
  change in vivo at 0.3 mg/kg: -12%
Coronary artery
  Duration of action of coronary vasodilating effect: > 60 min
  ED100 pap (dose for 100% increase of Cor. BF): 400 μg ia
Beta-adrenoceptor [2]; [6]
  ED50: 0.73 mg/kg
Beta-adrenoceptor [3]
  ISA: -

## COC(=O)C1=C(C)NC(C)=C(C(=O)OC)C1c1cc([N+](=O)[O-])ccc1OCCCCNC[C@@H](O)COc1ccccc1 [Example 17, (R)-(+)-dimethyl 4-[2-[4-(2-hydroxy-3-phenoxypropylamino)butoxy]-5-nitrophenyl]-2,6-dimethyl-1,4-dihydropyridine-3,5-dicarboxylate]
[1]; [4]
  change in vivo at 1 mg/kg: 94%
[1]; [5]
  change in vivo at 1 mg/kg: -35%
Coronary artery
  Duration of action of coronary vasodilating effect: > 60 min
  ED100 pap (dose for 100% increase of Cor. BF): 158 μg ia
Beta-adrenoceptor [2]; [6]
  ED50: 3.53 mg/kg
Beta-adrenoceptor [3]
  ISA: -

## COC(=O)C1=C(C)NC(C)=C(C(=O)OC)C1c1cc(S(C)(=O)=O)ccc1OCCCCNCC(O)COc1ccccc1 (stereo not drawn) [Example 23, dimethyl 4-[2-[4-(2-hydroxy-3-phenoxypropylamino)butoxy]-5-methylsulfonylphenyl]-2,6-dimethyl-1,4-dihydropyridine-3,5-dicarboxylate]
[1]; [4]
  change in vivo at 1 mg/kg: 64%
[1]; [5]
  change in vivo at 1 mg/kg: -32%
Coronary artery
  Duration of action of coronary vasodilating effect: > 60 min
  ED100 pap (dose for 100% increase of Cor. BF): 780 μg ia
Beta-adrenoceptor [2]; [6]
  ED50: 0.03 mg/kg
Beta-adrenoceptor [3]
  ISA: -

## COC(=O)C1=C(C)NC(C)=C(C(=O)OC)C1c1cc(SC)ccc1OCCCCNCC(O)COc1ccccc1.Cl (stereo not drawn) [Example 28, dimethyl 4-[2-[4-(2-hydroxy-3-phenoxypropylamino)butoxy]-5-methylthiophenyl]-2,6-dimethyl-1,4-dihydropyridine-3,5-dicarboxylate hydrochloride]
[1]; [4]
  change in vivo at 1 mg/kg: 70%
[1]; [5]
  change in vivo at 1 mg/kg: -28%
Coronary artery
  Duration of action of coronary vasodilating effect: 30 min
  ED100 pap (dose for 100% increase of Cor. BF): 555 μg ia
Beta-adrenoceptor [2]; iv
  ED50: 0.27 mg/kg
Beta-adrenoceptor [3]
  ISA: -

## COC(=O)C1=C(C)NC(C)=C(C(=O)OC)C1c1cc([N+](=O)[O-])ccc1OCCCNCC(O)COc1ccccc1 (stereo not drawn) [Example 8, dimethyl 4-[2-[3-(2-hydroxy-3-phenoxypropylamino)propoxy]-5-nitrophenyl]-2,6-dimethyl-1,4-dihydropyridine-3,5-dicarboxylate]
[1]; [4]
  change in vivo at 1 mg/kg: 10%
[1]; [5]
  change in vivo at 1 mg/kg: -29%
Coronary artery
  Duration of action of coronary vasodilating effect: 60 min
  ED100 pap (dose for 100% increase of Cor. BF): 645 μg ia
Beta-adrenoceptor [2]; [6]
  ED50: 0.31 mg/kg
Beta-adrenoceptor [3]
  ISA: + (an increase in HR of 10 to 19 beats/min)

## COC(=O)C1=C(C)NC(C)=C(C(=O)OC)C1c1cc([N+](=O)[O-])ccc1OCCCCNC[C@H](O)COc1ccccc1 [Example 16, (S)-(-)-dimethyl 4-[2-[4-(2-hydroxy-3-phenoxypropylamino)butoxy]-5-nitrophenyl]-2,6-dimethyl-1,4-dihydropyridine-3,5-dicarboxylate]
[1]; [4]
  change in vivo at 1 mg/kg: 97%
[1]; [5]
  change in vivo at 1 mg/kg: -31%
Coronary artery
  Duration of action of coronary vasodilating effect: > 60 min
  ED100 pap (dose for 100% increase of Cor. BF): 162 μg ia
Beta-adrenoceptor [2]; [6]
  ED50: 0.39 mg/kg
Beta-adrenoceptor [3]
  ISA: -

## COC(=O)C1=C(C)NC(C)=C(C(=O)OC)C1c1cc([N+](=O)[O-])ccc1OCCCCCNCC(O)COc1ccccc1 (stereo not drawn) [Example 12, dimethyl 4-[2-[5-(2-hydroxy-3-phenoxypropylamino)pentyloxy]-5-nitrophenyl]-2,6-dimethyl-1,4-dihydropyridine-3,5-dicarboxylate]
[1]; [4]
  change in vivo at 0.3 mg/kg: 14%
[1]; [5]
  change in vivo at 0.3 mg/kg: -18%
Coronary artery
  Duration of action of coronary vasodilating effect: > 60 min
  ED100 pap (dose for 100% increase of Cor. BF): 475 μg ia
Beta-adrenoceptor [2]; [6]
  ED50: 2.58 mg/kg
Beta-adrenoceptor [3]
  ISA: -

## COC(=O)C1=C(C)NC(C)=C(C(=O)OC)C1c1cc([N+](=O)[O-])ccc1OCCNCC(O)COc1ccccc1 (stereo not drawn) [Example 1, dimethyl 4-[2-[2-(2-hydroxy-3-phenoxypropylamino)ethoxy]-5-nitrophenyl]-2,6-dimethyl-1,4-dihydropyridine-3,5-dicarboxylate]
[1]; [4]
  change in vivo at 0.1 mg/kg: 21%
  change in vivo at 0.3 mg/kg: 69%
[1]; [5]
  change in vivo at 0.1 mg/kg: -7%
  change in vivo at 0.3 mg/kg: -17%
Coronary artery
  Duration of action of coronary vasodilating effect: 15 min
  ED100 pap (dose for 100% increase of Cor. BF): 75 μg ia
Beta-adrenoceptor [2]; [6]
  ED50: 0.13 mg/kg
Beta-adrenoceptor [3]
  ISA: +++ (an increase in HR of above 30 beats/min)

## COC(=O)C1=C(C)NC(C)=C(C(=O)OC)C1c1ccccc1OCCCCNCC(O)COc1ccccc1 (stereo not drawn) [Example 34, dimethyl 4-[o-[4-(2-hydroxy-3-phenoxypropylamino)butoxy]phenyl]-2,6-dimethyl-1,4-dihydropyridine-3,5-dicarboxylate]
[1]; [4]
  change in vivo at 0.3 mg/kg: 3%
[1]; [5]
  change in vivo at 0.3 mg/kg: -18%
Coronary artery
  Duration of action of coronary vasodilating effect: > 60 min
  ED100 pap (dose for 100% increase of Cor. BF): 175 μg ia
Beta-adrenoceptor [2]; [6]
  ED50: 0.9 mg/kg
Beta-adrenoceptor [3]
  ISA: -
